Measured values from article PMC8244818 (Journal of medicinal chemistry, 2021).

Key:
Plasmodium yoelii = type: in vivo; details: P. yoelii, CF1 mice, oral gavage in PEG-400, 5 mg/kg × 4 days
[1] = ref 34 (2), ref 35 (6); cited from earlier work
[2] = cited from earlier work

Structure (SMILES)	in vivo %parasitemia reduction on day 5 at 5 mg/kg/4d (Plasmodium yoelii)	antimicrobial activity [1]	cytotoxicity activity [2]
C=CCCCCCCCCc1ccc(C2=N/C(=C\NCCC=C)C(OC)=C2)[nH]1.Cl [Compound 39, N-((5-(dec-9-en-1-yl)-4’-methoxy-1H,5’H-[2,2’-bipyrrol]-5’-ylidene)methyl)but-3-en-1-amine]	ineffective		
COC1=CC(c2ccc[nH]2)=N/C1=C\c1cc(CCCCC(C)C)c(C)[nH]1.Cl [Compound 6, Isoheptylprodigiosin]		moderate	
CCCCCc1cc(/C=C2\N=C(c3ccc(Cc4ccc(O)cc4)[nH]3)C=C2OC)[nH]c1C.Cl [Compound 2, 4-((4’-Methoxy-5’-((5-methyl-4-pentyl-1H-pyrrol-2-yl)methylene)-1H,5’H-[2,2’-bipyrrol]-5-yl)methyl)phenol]	did not show efficacy	good	good
CCCCc1cc(/C=C2\N=C(c3ccc(Cc4ccc(O)cc4)[nH]3)C=C2OC)[nH]c1C.Cl [Compound 3, 4-((5’-((4-Butyl-5-methyl-1H-pyrrol-2-yl)methylene)-4’-methoxy-1H,5’H-[2,2’-bipyrrol]-5-yl)methyl)phenol]	did not show efficacy		
COC1=CC2=N/C1=C\NCC/C=C/CCCCCCCCc1ccc2[nH]1.Cl [(E/Z)-7, geometric isomers of Tambjamine MYP1]	ineffective		
